Source: patent US7888363B2, “Viral polymerase inhibitors” (Boehringer Ingelheim International GmbH, priority 2003, dated 2011)

Target: hepatitis C virus RNA dependant polymerase (NS5B) (Hepatitis C virus genotype 1b, UniProt P26663)
Test: Inhibition of NS5B RNA dependent RNA polymerase activity
Type: biochemical
Settings: Table 1; HCV NS5B polymerase
Method: A suitable assay is described in the examples.
Inhibition of NS5B RNA Dependent RNA Polymerase Activity
The compounds of the invention were tested for inhibitory activity against the hepatitis C virus RNA dependant polymerase (NS5B), according to protocol described in WO 03/010141

Chain of hepatitis C virus RNA dependant polymerase (NS5B) (P26663 2420-3010): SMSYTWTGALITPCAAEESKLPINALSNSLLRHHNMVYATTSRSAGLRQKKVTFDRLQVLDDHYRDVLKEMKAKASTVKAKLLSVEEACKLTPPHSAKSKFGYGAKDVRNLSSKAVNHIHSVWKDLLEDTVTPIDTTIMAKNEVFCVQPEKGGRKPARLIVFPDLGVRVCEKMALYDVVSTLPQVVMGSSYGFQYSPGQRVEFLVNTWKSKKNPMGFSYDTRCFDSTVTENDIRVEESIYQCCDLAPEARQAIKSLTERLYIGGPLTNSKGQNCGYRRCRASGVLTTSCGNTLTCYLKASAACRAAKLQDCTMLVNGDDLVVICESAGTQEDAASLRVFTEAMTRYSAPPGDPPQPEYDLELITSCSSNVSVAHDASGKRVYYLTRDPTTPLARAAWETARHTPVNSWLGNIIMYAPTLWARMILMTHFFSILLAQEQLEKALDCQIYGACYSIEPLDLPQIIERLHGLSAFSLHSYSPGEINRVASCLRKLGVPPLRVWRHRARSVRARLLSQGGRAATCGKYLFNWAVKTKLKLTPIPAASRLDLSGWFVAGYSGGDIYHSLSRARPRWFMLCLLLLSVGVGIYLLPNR

IC50 [nM]	SMILES
< 200	CN1CCN(C(=O)Cn2c(-c3ccccn3)c(C3CCCCC3)c3ccc(C(=O)O)cc32)CC1 [Example 1082]
< 200	CN(C)C(=O)Cn1c(-c2ccoc2)c(C2CCCCC2)c2ccc(C(=O)O)cc21 [Example 1111]
< 200	O=C(O)CCNC(=O)Cn1c(-c2ccoc2)c(C2CCCCC2)c2ccc(C(=O)O)cc21 [Example 1073]
200 to 1000	COCCN(C)C(=O)Cn1c(-c2ccoc2)c(C2CCCCC2)c2ccc(C(=O)O)cc21 [Example 1124]
200 to 1000	O=C(O)c1ccc2c(C3CCCCC3)c(-c3cc4ccccc4s3)n(CC(=O)N3CCOCC3)c2c1 [Example 1042]
200 to 1000	O=C(O)c1ccc2c(C3CCCCC3)c(-c3cc4ccccc4s3)n(CC(=O)N3CCC(N4CCCC4)CC3)c2c1 [Example 1049]
1000 to 10000	CN(C)C(=O)Cn1c(-c2cc3ccccc3s2)c(C2CCCCC2)c2ccc(C(=O)O)cc21 [Example 1046]
< 200	CN(C)C1CCN(C(=O)Cn2c(-c3ccoc3)c(C3CCCCC3)c3ccc(C(=O)O)cc32)C1 (stereo not drawn) [Example 1131]
< 200	O=C(O)c1ccc2c(C3CCCCC3)c(-c3ccoc3)n(CC(=O)N3CCSCC3)c2c1 [Example 1012]
200 to 1000	O=C(O)c1ccc2c(C3CCCC3)c(-c3ccccn3)n(CC(=O)N3CCCCC3)c2c1 [Example 1087]
< 200	O=C(O)CNC(=O)Cn1c(-c2ccoc2)c(C2CCCCC2)c2ccc(C(=O)O)cc21 [Example 1067]
< 200	O=C(Cn1c(-c2ccoc2)c(C2CCCCC2)c2ccc(C(=O)O)cc21)NNC(=O)NC[C@H]1CC[C@H](C(=O)O)CC1 [Example 1076]
200 to 1000	CN(C)C(=O)Cn1c(-c2cccn2C)c(C2CCCCC2)c2ccc(C(=O)O)cc21 [Example 1039]
< 200	O=C(O)CN1CCN(C(=O)Cn2c(-c3ccoc3)c(C3CCCCC3)c3ccc(C(=O)O)cc32)CC1 [Example 1074]
< 200	O=C(O)c1ccc2c(C3CCCCC3)c(-c3ccoc3)n(CC(=O)N3CCC(N4CCCC4)CC3)c2c1 [Example 1116]
< 200	CN(C)C(=O)Cn1c(-c2ccoc2)c(C2CCCC2)c2ccc(C(=O)O)cc21 [Example 1044]
< 200	O=C(Cn1c(-c2ccoc2)c(C2CCCCC2)c2ccc(C(=O)O)cc21)N[C@@H](Cc1c[nH]c2ccc(O)cc12)C(=O)O [Example 1081]
200 to 1000	CC(C)N(C(=O)Cn1c(-c2ccoc2)c(C2CCCCC2)c2ccc(C(=O)O)cc21)C1CCCCC1 [Example 1091]
200 to 1000	CCN(C(=O)Cn1c(-c2ccoc2)c(C2CCCCC2)c2ccc(C(=O)O)cc21)C1CCCCC1 [Example 1093]
200 to 1000	CN(Cc1cccnc1)C(=O)Cn1c(-c2ccoc2)c(C2CCCCC2)c2ccc(C(=O)O)cc21 [Example 1114]
< 200	CCN(CC)C1CCN(C(=O)Cn2c(-c3ccoc3)c(C3CCCCC3)c3ccc(C(=O)O)cc32)C1 (stereo not drawn) [Example 1016]
< 200	CN(CCO)C(=O)Cn1c(-c2ccoc2)c(C2CCCCC2)c2ccc(C(=O)O)cc21 [Example 1090]
200 to 1000	O=C(Cn1c(-c2ccoc2)c(C2CCCCC2)c2ccc(C(=O)O)cc21)NCC1CCCO1 (stereo not drawn) [Example 1113]
< 200	O=C(O)/C=C/c1ccc(NC(=O)[C@]2(NC(=O)Cn3c(-c4ccoc4)c(C4CCCCC4)c4ccc(C(=O)O)cc43)CCNC2)cc1 [Example 1077]
< 200	O=C(O)c1ccc2c(C3CCCCC3)c(-c3cnccn3)n(CC(=O)N3CCC(N4CCCC4)CC3)c2c1 [Example 1045]
1000 to 10000	CNC(=O)Cn1c(-c2ccccn2)c(C2CCCCC2)c2ccc(C(=O)O)cc21 [Example 1143]
< 200	O=C(O)c1ccc2c(C3CCCCC3)c(-c3ccoc3)n(CC(=O)N3CCOCC3)c2c1 [Example 1097]

Same assay, conditions: Table 2; HCV NS5B polymerase

IC50 [nM]	SMILES
< 200	O=C(NS(=O)(=O)c1c(F)cccc1F)c1ccc2c(C3CCCCC3)c(-c3ccoc3)n(CC(=O)N3CCOCC3)c2c1 [Example 2036]
< 200	CS(=O)(=O)c1ccccc1S(=O)(=O)NC(=O)c1ccc2c(C3CCCCC3)c(-c3ccoc3)n(CC(=O)N3CCOCC3)c2c1 [Example 2038]
< 200	Cc1noc(C)c1S(=O)(=O)NC(=O)c1ccc2c(C3CCCCC3)c(-c3ccoc3)n(CC(=O)N3CCOCC3)c2c1 [Example 2034]
200 to 1000	N#Cc1ccccc1S(=O)(=O)NC(=O)c1ccc2c(C3CCCCC3)c(-c3ccoc3)n(CC(=O)N3CCOCC3)c2c1 [Example 2032]
< 200	O=C(NS(=O)(=O)c1ccc(Cl)s1)c1ccc2c(C3CCCCC3)c(-c3ccoc3)n(CC(=O)N3CCOCC3)c2c1 [Example 2004]
< 200	O=C(NS(=O)(=O)c1ccccc1Cl)c1ccc2c(C3CCCCC3)c(-c3ccoc3)n(CC(=O)N3CCOCC3)c2c1 [Example 2012]
< 200	Cc1ccccc1S(=O)(=O)NC(=O)c1ccc2c(C3CCCCC3)c(-c3ccoc3)n(CC(=O)N3CCOCC3)c2c1 [Example 2016]
< 200	O=C(NS(=O)(=O)c1cccc2cnccc12)c1ccc2c(C3CCCCC3)c(-c3ccoc3)n(CC(=O)N3CCOCC3)c2c1 [Example 2039]
< 200	O=C(NS(=O)(=O)c1ccc([N+](=O)[O-])cc1)c1ccc2c(C3CCCCC3)c(-c3ccoc3)n(CC(=O)N3CCOCC3)c2c1 [Example 2018]
< 200	O=C(NS(=O)(=O)c1ccc(OC(F)(F)F)cc1)c1ccc2c(C3CCCCC3)c(-c3ccoc3)n(CC(=O)N3CCOCC3)c2c1 [Example 2013]

Same assay, conditions: Table 4; class ranges

IC50 [nM]	SMILES
< 200	CC(C)(NC(=O)c1ccc2c(C3CCCCC3)c(-c3ccoc3)n(CC(=O)N3CCOCC3)c2c1)C(=O)O [Example 4087]
200 to 1000	CN(C)C(=O)Cn1c(-c2ccoc2)c(C2CCCCC2)c2ccc(C(=O)NCc3ccc4c(c3)OCO4)cc21 [Example 4052]
200 to 1000	C[C@@H](NC(=O)c1ccc2c(C3CCCCC3)c(-c3ccoc3)n(CC(=O)N3CCOCC3)c2c1)c1ccccc1 [Example 4007]
200 to 1000	COC(=O)C1(NC(=O)c2ccc3c(C4CCCCC4)c(-c4ccoc4)n(CC(=O)N4CCOCC4)c3c2)COCOC1 [Example 4080]
200 to 1000	CN1CCN(C(=O)Cn2c(-c3ccoc3)c(C3CCCCC3)c3ccc(C(=O)NCCN4CCOCC4)cc32)CC1 [Example 4014]
< 200	COc1cccc([C@@H](C)NC(=O)c2ccc3c(C4CCCCC4)c(-c4ccoc4)n(CC(=O)N4CCN(C)CC4)c3c2)c1 [Example 4042]
< 200	CN1CCN(C(=O)Cn2c(-c3ccoc3)c(C3CCCCC3)c3ccc(C(=O)NCc4ccc(S(C)(=O)=O)cc4)cc32)CC1 [Example 4041]
< 200	CNC(=O)C1(NC(=O)c2ccc3c(C4CCCCC4)c(-c4ccoc4)n(CC(=O)N4CCC(N5CCCC5)CC4)c3c2)CCCC1 [Example 4094]
200 to 1000	CN1CCN(C(=O)Cn2c(-c3ccoc3)c(C3CCCCC3)c3ccc(C(=O)NCCc4ccncc4)cc32)CC1 [Example 4035]
< 200	COc1ccc([C@@H](C)NC(=O)c2ccc3c(C4CCCCC4)c(-c4ccoc4)n(CC(=O)N4CCN(C)CC4)c3c2)cc1 [Example 4043]
200 to 1000	CN1CCN(C(=O)Cn2c(-c3ccoc3)c(C3CCCCC3)c3ccc(C(=O)NCc4ccccc4)cc32)CC1 [Example 4021]
1000 to 10000	O=C(NCCc1ccccc1)c1ccc2c(C3CCCCC3)c(-c3ccoc3)n(CC(=O)N3CCOCC3)c2c1 [Example 4048]
200 to 1000	CN1CCN(C(=O)Cn2c(-c3ccoc3)c(C3CCCCC3)c3ccc(C(=O)NC4CCN(Cc5ccccc5)C4)cc32)CC1 (stereo not drawn) [Example 4036]
< 200	CNC(=O)C1(NC(=O)c2ccc3c(C4CCCCC4)c(-c4ccoc4)n(CC(=O)N4CCOCC4)c3c2)CCCC1 [Example 4096]
< 200	CC(C)(NC(=O)c1ccc2c(C3CCCCC3)c(-c3ccoc3)n(CC(=O)N3CCC(N4CCCC4)CC3)c2c1)C(N)=O [Example 4081]
200 to 1000	COc1ccc(CNC(=O)c2ccc3c(C4CCCCC4)c(-c4ccccn4)n(CC(=O)N4CCN(C)CC4)c3c2)cc1OC [Example 4002]
200 to 1000	CNC(=O)C1(NC(=O)c2ccc3c(C4CCCCC4)c(-c4ccoc4)n(CC(=O)N4CCOCC4)c3c2)CCC1 [Example 4091]

Same assay, conditions: Table 5; HCV NS5B polymerase

IC50 [nM]	SMILES
1000 to 10000	CN(C)C(=O)CCn1c(-c2ccoc2)c(C2CCCCC2)c2ccc(C(=O)O)cc21 [Example 5003]

Same assay, conditions: Table 6; HCV NS5B polymerase

IC50 [nM]	SMILES
< 200	O=C(O)c1ccc2c(c1)c(C1CCCCC1)c(-c1ccoc1)n2CC(=O)N1CCC(N2CCCC2)CC1 [Example 6002]
200 to 1000	O=C(O)c1ccc2c(c1)c(C1CCCCC1)c(-c1ccoc1)n2CC(=O)N1CCOCC1 [Example 6001]

Same assay, conditions: Table 7; class ranges

IC50 [nM]	SMILES
1000 to 10000	O=C(NCc1ccccn1)c1ccc2c(c1)c(C1CCCCC1)c(-c1ccoc1)n2CC(=O)N1CCC(N2CCCC2)CC1 [Example 7019]
1000 to 10000	NC(=O)C1CCN(C(=O)c2ccc3c(c2)c(C2CCCCC2)c(-c2ccoc2)n3CC(=O)N2CCC(N3CCCC3)CC2)CC1 [Example 7035]
< 200	Cc1c(C(=O)O)ccc2c(C3CCCCC3)c(-c3ccoc3)n(CC(=O)N3CCC(N4CCCC4)CC3)c12 [Example 7004]
1000 to 10000	Cc1cccc(CNC(=O)c2ccc3c(c2)c(C2CCCCC2)c(-c2ccoc2)n3CC(=O)N2CCC(N3CCCC3)CC2)c1 [Example 7029]
1000 to 10000	O=C(O)CCc1cccc(NC(=O)c2ccc3c(c2)c(C2CCCCC2)c(-c2ccoc2)n3CC(=O)N2CCC(N3CCCC3)CC2)c1 [Example 7056]
1000 to 10000	O=C(O)c1ccc(CNC(=O)c2ccc3c(c2)c(C2CCCCC2)c(-c2ccoc2)n3CC(=O)N2CCC(N3CCCC3)CC2)cc1 [Example 7045]
1000 to 10000	O=C(O)Cc1cccc(NC(=O)c2ccc3c(c2)c(C2CCCCC2)c(-c2ccoc2)n3CC(=O)N2CCC(N3CCCC3)CC2)c1 [Example 7055]
1000 to 10000	O=C(O)c1cc2c(cc1O)c(C1CCCCC1)c(-c1ccoc1)n2CC(=O)N1CCOCC1 [Example 7008]
200 to 1000	CN1C(C)(C)CC(NC(=O)c2ccc3c(c2)c(C2CCCCC2)c(-c2ccoc2)n3CC(=O)N2CCC(N3CCCC3)CC2)CC1(C)C [Example 7053]
